Experimental data as given in US9873709B2 (priority 2013, dated 2018).

Each compound was assayed on JAK1-dependent STAT6 phosphorylation downstream of IL-13 stimulation in TF-1 human erythroleukemia cells (assay: cells). Conditions: TF-1, read-out: IL-13-pSTAT6 IC50.

Question: `NC1CC2(CCN(C(=O)c3ccc(Nc4nc5c(C6=CCN(C(=O)CCC(F)(F)F)CC6)cccn5n4)cc3)CC2)C1` [Example 2-315, 1-[4-[2-[4-(2-amino-7-azaspiro[3.5]nonane-7-carbonyl)anilino]-[1,2,4]triazolo[1,5-a]pyridin-8-yl]-3,6-dihydro-2H-pyridin-1-yl]-4,4,4-trifluoro-butan-1-one] was tested. Which IC50 did it give?
Answer: 109 nM

Question: `O=C(NCCC1CCCN1)c1ccc(Nc2nc3c(C4=CCN(C(=O)CCC(F)(F)F)CC4)cccn3n2)cc1` (centres unmarked) [Example 2-316, N-(2-pyrrolidin-2-ylethyl)-4-[[8-[1-(4,4,4-trifluorobutanoyl)-3,6-dihydro-2H-pyridin-4-yl]-[1,2,4]triazolo[1,5-a]pyridin-2-yl]amino]benzamide] was tested. Which IC50 did it give?
Answer: 145 nM

Question: For `O=C(NCC1CCCN1)c1ccc(Nc2nc3c(C4=CCN(C(=O)CCC(F)(F)F)CC4)cccn3n2)cc1` (centres unmarked) [Example 2-317, N-(pyrrolidin-2-ylmethyl)-4-[[8-[1-(4,4,4-trifluorobutanoyl)-3,6-dihydro-2H-pyridin-4-yl]-[1,2,4]triazolo[1,5-a]pyridin-2-yl]amino]benzamide], which IC50 is on record?
Answer: 228 nM

Question: `O=C(CCC(F)(F)F)N1CC=C(c2cccn3nc(Nc4ccc(C(=O)N5CCNCC5)cc4)nc23)CC1` [Example 2-318, 4,4,4-trifluoro-1-[4-[2-[4-(piperazine-1-carbonyl)anilino]-[1,2,4]triazolo[1,5-a]pyridin-8-yl]-3,6-dihydro-2H-pyridin-1-yl]butan-1-one] was tested. Which IC50 did it give?
Answer: 37.7 nM

Question: Which IC50 does the source give for `CC1CNCCN1C(=O)c1ccc(Nc2nc3c(C4=CCN(C(=O)CCC(F)(F)F)CC4)cccn3n2)cc1` (centres unmarked) [Example 2-319, 4,4,4-trifluoro-1-[4-[2-[4-(2-methylpiperazine-1-carbonyl)anilino]-[1,2,4]triazolo[1,5-a]pyridin-8-yl]-3,6-dihydro-2H-pyridin-1-yl]butan-1-one] here?
Answer: 24.3 nM

Question: For `O=C(CCC(F)(F)F)N1CC=C(c2cccn3nc(Nc4ccc(C(=O)N5CC[C@H]6CNC[C@H]65)cc4)nc23)CC1` [Example 2-320, 1-[4-[2-[4-[(3aS,6aS)-3,3a,4,5,6,6a-hexahydro-2H-pyrrolo[2,3-c]pyrrole-1-carbonyl]anilino]-[1,2,4]triazolo[1,5-a]pyridin-8-yl]-3,6-dihydro-2H-pyridin-1-yl]-4,4,4-trifluoro-butan-1-one], which IC50 is on record?
Answer: 120 nM

Question: Which IC50 does the source give for `O=C(CCC(F)(F)F)N1CC=C(c2cccn3nc(Nc4ccc(C(=O)N5C[C@H]6CNC[C@H]6C5)cc4)nc23)CC1` [Example 2-321, 1-[4-[2-[4-[(3aR,6aS)-2,3,3a,4,6,6a-hexahydro-1H-pyrrolo[3,4-c]pyrrole-5-carbonyl]anilino]-[1,2,4]triazolo[1,5-a]pyridin-8-yl]-3,6-dihydro-2H-pyridin-yl]-4,4,4-trifluoro-butan-1-one] here?
Answer: 250 nM

Question: Which IC50 does the source give for `O=C(NC1CC2(CCNCC2)C1)c1ccc(Nc2nc3c(C4=CCN(C(=O)CCC(F)(F)F)CC4)cccn3n2)cc1` [Example 2-322, N-(7-azaspiro[3.5]nonan-2-yl)-4-[[8-[1-(4,4,4-trifluorobutanoyl)-3,6-dihydro-2H-pyridin-4-yl]-[1,2,4]triazolo[1,5-a]pyridin-2-yl]amino]benzamide] here?
Answer: 104 nM

Question: `N[C@]12C[C@H]1CN(C(=O)c1ccc(Nc3nc4c(C5=CCN(C(=O)CCC(F)(F)F)CC5)cccn4n3)cc1)C2` [Example 2-323] was tested. Which IC50 did it give?
Answer: 17.5 nM

Question: `CN1CCCCC1C1CCCN1C(=O)c1ccc(Nc2nc3c(C4=CCN(C(=O)CCC(F)(F)F)CC4)cccn3n2)cc1` (centres unmarked) [Example 2-324, 4,4,4-trifluoro-1-[4-[2-[4-[2-(1-methyl-2-piperidyl)pyrrolidine-1-carbonyl]anilino]-[1,2,4]triazolo[1,5-a]pyridin-8-yl]-3,6-dihydro-2H-pyridin-yl]butan-1-one] was tested. Which IC50 did it give?
Answer: 8.2 nM

Question: Which IC50 does the source give for `CN(C)C(=O)C1CN(C(=O)c2ccc(Nc3nc4c(C5=CCN(C(=O)CCC(F)(F)F)CC5)cccn4n3)cc2)CCN1C` (centres unmarked) [Example 2-325, N,N,1-trimethyl-4-[4-[[8-[1-(4,4,4-trifluorobutanoyl)-3,6-dihydro-2H-pyridin-4-yl]-[1,2,4]triazolo[1,5-a]pyridin-2-yl]amino]benzoyl] piperazine-2-carboxamide] here?
Answer: 191 nM

Question: Which IC50 does the source give for `CN1C[C@@H]2CCN(C(=O)c3ccc(Nc4nc5c(C6=CCN(C(=O)CCC(F)(F)F)CC6)cccn5n4)cc3)[C@@H]2C1` [Example 2-326, 1-[4-[2-[4-[(3aS,6aS)-5-methyl-2,3,3a,4,6,6a-hexahydropyrrolo[2,3-c]pyrrole-1-carbonyl]anilino]-[1,2,4]triazolo[1,5-a]pyridin-8-yl]-3,6-dihydro-2H-pyridin-1-yl]-4,4,4-trifluoro-butan-1-one] here?
Answer: 4.2 nM

Question: For `CN1CCC2(C1)CN(C(=O)c1ccc(Nc3nc4c(C5=CCN(C(=O)CCC(F)(F)F)CC5)cccn4n3)cc1)C2` [Example 2-328, 4,4,4-trifluoro-1-[4-[2-[4-(7-methyl-2,7-diazaspiro[3.4]octane-2-carbonyl)anilino]-[1,2,4]triazolo[1,5-a]pyridin-8-yl]-3,6-dihydro-2H-pyridin-1-yl]butan-1-one], which IC50 is on record?
Answer: 12.3 nM

Question: `O=C(CCC(F)(F)F)N1CC=C(c2cccn3nc(Nc4ccc(C(=O)N5CCN(C6CCCCC6)CC5)cc4)nc23)CC1` [Example 2-329, 1-[4-[2-[4-(4-cyclohexylpiperazine-1-carbonyl)anilino]-[1,2,4]triazolo[1,5-a]pyridin-8-yl]-3,6-dihydro-2H-pyridin-1-yl]-4,4,4-trifluoro-butan-1-one] was tested. Which IC50 did it give?
Answer: 8.3 nM

Question: Which IC50 does the source give for `CC(C)N1CCC(N(C)C(=O)c2ccc(Nc3nc4c(C5=CCN(C(=O)CCC(F)(F)F)CC5)cccn4n3)cc2)CC1` [Example 2-330, N-(1-isopropyl-4-piperidyl)-N-methyl-4-[[8-[1-(4,4,4-trifluorobutanoyl)-3,6-dihydro-2H-pyridin-4-yl]-[1,2,4]triazolo[1,5-a]pyridin-2-yl]amino]benzamide] here?
Answer: 13.4 nM

Question: `COCCN1CCN(C(=O)c2ccc(Nc3nc4c(C5=CCN(C(=O)CCC(F)(F)F)CC5)cccn4n3)cc2)CC1` [Example 2-331, 4,4,4-trifluoro-1-[4-[2-[4-[4-(2-methoxyethyl)piperazine-1-carbonyl]anilino]-[1,2,4]triazolo[1,5-a]pyridin-8-yl]-3,6-dihydro-2H-pyridin-1-yl]butan-1-one] was tested. Which IC50 did it give?
Answer: 8.9 nM

Question: How did the IC50 turn out when `CN1C(C)(C)CC(NC(=O)c2ccc(Nc3nc4c(C5=CCN(C(=O)CCC(F)(F)F)CC5)cccn4n3)cc2)CC1(C)C` [Example 2-332, N-(1,2,2,6,6-pentamethyl-4-piperidyl)-4-[[8-[1-(4,4,4-trifluorobutanoyl)-3,6-dihydro-2H-pyridin-4-yl]-[1,2,4]triazolo[1,5-a]pyridin-2-yl]amino]benzamide] was run?
Answer: 9.2 nM

Question: `CC(C)(CN1CCOCC1)NC(=O)c1ccc(Nc2nc3c(C4=CCN(C(=O)CCC(F)(F)F)CC4)cccn3n2)cc1` [Example 2-333, N-(1,1-dimethyl-2-morpholino-ethyl)-4-[[8-[1-(4,4,4-trifluorobutanoyl)-3,6-dihydro-2H-pyridin-4-yl]-[1,2,4]triazolo[1,5-a]pyridin-2-yl]amino]benzamide] was tested. Which IC50 did it give?
Answer: 5.5 nM

Question: Which IC50 does the source give for `CN1CCC(NC(=O)c2ccc(Nc3nc4c(C5=CCN(C(=O)CCC(F)(F)F)CC5)cccn4n3)cc2)CC1` [Example 2-335, N-(1-methyl-4-piperidyl)-4-[[8-[1-(4,4,4-trifluorobutanoyl)-3,6-dihydro-2H-pyridin-4-yl]-[1,2,4]triazolo[1,5-a]pyridin-2-yl]amino]benzamide] here?
Answer: 14.3 nM

Question: With `CN(C)CCNC(=O)c1ccc(Nc2nc3c(C4=CCN(C(=O)CCC(F)(F)F)CC4)cccn3n2)cc1` [Example 2-336, N-[2-(dimethylamino)ethyl]-4-[[8-[1-(4,4,4-trifluorobutanoyl)-3,6-dihydro-2H-pyridin-4-yl]-[1,2,4]triazolo[1,5-a]pyridin-2-yl]amino]benzamide] as the compound, how does the IC50 read?
Answer: 8.6 nM

Question: With `CN1CCCC(CNC(=O)c2ccc(Nc3nc4c(C5=CCN(C(=O)CCC(F)(F)F)CC5)cccn4n3)cc2)C1` (centres unmarked) [Example 2-337, N-[(1-methyl-3-piperidyl)methyl]-4-[[8-[1-(4,4,4-trifluorobutanoyl)-3,6-dihydro-2H-pyridin-4-yl]-[1,2,4]triazolo[1,5-a]pyridin-2-yl]amino]benzamide] as the compound, how does the IC50 read?
Answer: 28.9 nM

Question: Which IC50 does the source give for `O=C(CCC(F)(F)F)N1CC=C(c2cccn3nc(Nc4ccc(C(=O)N5CCCC(N6CCOCC6)C5)cc4)nc23)CC1` (centres unmarked) [Example 2-339, 4,4,4-trifluoro-1-[4-[2-[4-(3-morpholinopiperidine-1-carbonyl)anilino]-[1,2,4]triazolo[1,5-a]pyridin-8-yl]-3,6-dihydro-2H-pyridin-1-yl]butan-1-one] here?
Answer: 9.8 nM

Question: `O=C(CCC(F)(F)F)N1CC=C(c2cccn3nc(Nc4ccc(C(=O)N5CCN(CC6CCCO6)CC5)cc4)nc23)CC1` (centres unmarked) [Example 2-340, 4,4,4-trifluoro-1-[4-[2-[4-[4-(tetrahydrofuran-2-ylmethyl)piperazine-1-carbonyl]anilino]-[1,2,4]triazolo[1,5-a]pyridin-8-yl]-3,6-dihydro-2H-pyridin-1-yl]butan-1-one] was tested. Which IC50 did it give?
Answer: 3.9 nM

Question: With `O=C(CCC(F)(F)F)N1CC=C(c2cccn3nc(Nc4ccc(C(=O)N5CCCC(c6ccccn6)C5)cc4)nc23)CC1` (centres unmarked) [Example 2-341, 4,4,4-trifluoro-1-[4-[2-[4-[3-(2-pyridyl)piperidine-1-carbonyl]anilino]-[1,2,4]triazolo[1,5-a]pyridin-8-yl]-3,6-dihydro-2H-pyridin-1-yl]butan-1-one] as the compound, how does the IC50 read?
Answer: 11.4 nM

Question: `CNC(=O)C1CN(C(=O)c2ccc(Nc3nc4c(C5=CCN(C(=O)CCC(F)(F)F)CC5)cccn4n3)cc2)CCN1Cc1ccccc1` (centres unmarked) [Example 2-342, 1-benzyl-N-methyl-4-[4-[[8-[1-(4,4,4-trifluorobutanoyl)-3,6-dihydro-2H-pyridin-4-yl]-[1,2,4]triazolo[1,5-a]pyridin-2-yl]amino]benzoyl] piperazine-2-carboxamide] was tested. Which IC50 did it give?
Answer: 16.2 nM

Question: Which IC50 does the source give for `CC(=O)N1CC=C(c2cccn3nc(Nc4ccc(C(=O)N(C)C5CCN(C)CC5)cc4)nc23)CC1` [Example 2-344, 4-[[8-(1-acetyl-3,6-dihydro-2H-pyridin-4-yl)-[1,2,4]triazolo[1,5-a]pyridin-2-yl]amino]-N-methyl-N-(1-methyI-4-piperidyl)benzamide] here?
Answer: 1800 nM
